Results reported in ChEMBL document CHEMBL4507257, “Data for DCP probe ABT-100” (2021).

Columns and labels:
[1] = molecular target: Cyclin-dependent kinase 15 (Homo sapiens) (UniProt Q96Q40); details: Compound concentration 1000.0 nM
[2] = system: Mast/stem cell growth factor receptor Kit (Homo sapiens), P10721 [D816H]; details: Compound concentration 1000.0 nM
[3] = molecular target: Tyrosine-protein kinase Mer (Homo sapiens) (UniProt Q12866); details: Compound concentration 1000.0 nM
[4] = molecular target: Discoidin domain-containing receptor 2 (Homo sapiens) (UniProt Q16832); details: Compound concentration 1000.0 nM
[5] = molecular target: Cyclin-dependent kinase-like 5 (Homo sapiens) (UniProt O76039); details: Compound concentration 1000.0 nM
[6] = system: Phosphatidylinositol 4,5-bisphosphate 3-kinase catalytic subunit alpha isoform (Homo sapiens), P42336 [E545K]; details: Compound concentration 1000.0 nM
[7] = system: Tyrosine-protein kinase ABL1 (Homo sapiens), P00519 [T315I]; details: Compound concentration 1000.0 nM
[8] = molecular target: Mitogen-activated protein kinase kinase kinase 3 (Homo sapiens) (UniProt Q99759); details: Compound concentration 1000.0 nM
[9] = molecular target: BDNF/NT-3 growth factors receptor (Homo sapiens) (UniProt Q16620); details: Compound concentration 1000.0 nM
[10] = molecular target: Sodium-dependent dopamine transporter (Homo sapiens) (UniProt Q01959); details: Compound concentration 10.0 uM
[11] = molecular target: Tyrosine-protein kinase Lck (Homo sapiens) (UniProt P06239); details: Compound concentration 1000.0 nM
[12] = molecular target: Receptor-type tyrosine-protein kinase FLT3 (Homo sapiens) (UniProt P36888); details: Compound concentration 1000.0 nM
[13] = molecular target: Mitogen-activated protein kinase 15 (Homo sapiens) (UniProt Q8TD08); details: Compound concentration 1000.0 nM
[14] = molecular target: Ephrin type-A receptor 3 (Homo sapiens) (UniProt P29320); details: Compound concentration 1000.0 nM
[15] = molecular target: Serine/threonine-protein kinase Nek9 (Homo sapiens) (UniProt Q8TD19); details: Compound concentration 1000.0 nM
[16] = molecular target: Cyclin-dependent kinase-like 2 (Homo sapiens) (UniProt Q92772); details: Compound concentration 1000.0 nM
[17] = molecular target: Mitogen-activated protein kinase 11 (Homo sapiens) (UniProt Q15759); details: Compound concentration 1000.0 nM
[18] = molecular target: Serine/threonine-protein kinase DCLK2 (Homo sapiens) (UniProt Q8N568); details: Compound concentration 1000.0 nM
[19] = molecular target: GABA-A receptor; anion channel (Rattus norvegicus) (UniProt O09028+P15431+P18506+P18508+P19969+P20236+P23574+P23576+P28471+P28473+P30191+P62813+P63079+P63138+Q91ZM7+Q9ES14); details: Compound concentration 10.0 uM
[20] = molecular target: Calcium/calmodulin-dependent protein kinase type 1D (Homo sapiens) (UniProt Q8IU85); details: Compound concentration 1000.0 nM
[21] = system: Receptor-type tyrosine-protein kinase FLT3 (Homo sapiens), P36888 [UNDEFINED MUTATION]; details: Compound concentration 1000.0 nM
[22] = molecular target: Mitogen-activated protein kinase kinase kinase 12 (Homo sapiens) (UniProt Q12852); details: Compound concentration 1000.0 nM
[23] = molecular target: Mitogen-activated protein kinase kinase kinase 14 (Homo sapiens) (UniProt Q99558); details: Compound concentration 1000.0 nM
[24] = molecular target: Non-receptor tyrosine-protein kinase TYK2 (Homo sapiens) (UniProt P29597); details: Compound concentration 1000.0 nM
[25] = molecular target: Serine/threonine-protein kinase pim-3 (Homo sapiens) (UniProt Q86V86); details: Compound concentration 1000.0 nM
[26] = molecular target: Cyclin-dependent kinase 19 (Homo sapiens) (UniProt Q9BWU1); details: Compound concentration 1000.0 nM
[27] = system: eIF-2-alpha kinase GCN2 (Homo sapiens), Q9P2K8 [S808G]; details: Compound concentration 1000.0 nM
[28] = molecular target: Death-associated protein kinase 1 (Homo sapiens) (UniProt P53355); details: Compound concentration 1000.0 nM
[29] = molecular target: T1, Muscarinic acetylcholine receptor M4 (Homo sapiens) (UniProt P08173); details: Compound concentration 10.0 uM
T1 sequence (whole entry): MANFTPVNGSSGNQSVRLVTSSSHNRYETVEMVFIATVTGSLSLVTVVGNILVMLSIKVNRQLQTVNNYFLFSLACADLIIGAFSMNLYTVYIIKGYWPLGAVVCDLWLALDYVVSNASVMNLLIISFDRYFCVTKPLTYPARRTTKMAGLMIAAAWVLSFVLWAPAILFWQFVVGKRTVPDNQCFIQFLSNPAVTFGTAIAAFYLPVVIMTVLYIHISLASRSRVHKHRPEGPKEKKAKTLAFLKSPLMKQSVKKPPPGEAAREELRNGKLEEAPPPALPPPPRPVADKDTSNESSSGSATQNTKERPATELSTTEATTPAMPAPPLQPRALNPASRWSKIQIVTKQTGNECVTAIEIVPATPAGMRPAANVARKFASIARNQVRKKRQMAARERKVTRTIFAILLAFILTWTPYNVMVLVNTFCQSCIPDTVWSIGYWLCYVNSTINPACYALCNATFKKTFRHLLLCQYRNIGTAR

[30] = molecular target: Mitogen-activated protein kinase kinase kinase 6 (Homo sapiens) (UniProt O95382); details: Compound concentration 1000.0 nM
[31] = molecular target: SRSF protein kinase 3 (Homo sapiens) (UniProt Q9UPE1); details: Compound concentration 1000.0 nM
[32] = molecular target: Serine/threonine-protein kinase pim-1 (Homo sapiens) (UniProt P11309); details: Compound concentration 1000.0 nM
[33] = molecular target: Casein kinase I isoform gamma-1 (Homo sapiens) (UniProt Q9HCP0); details: Compound concentration 1000.0 nM
[34] = molecular target: Tyrosine-protein kinase Tec (Homo sapiens) (UniProt P42680); details: Compound concentration 1000.0 nM
[35] = molecular target: Serine/threonine-protein kinase PRP4 homolog (Homo sapiens) (UniProt Q13523); details: Compound concentration 1000.0 nM
[36] = molecular target: Calcium/calmodulin-dependent protein kinase type II subunit gamma (Homo sapiens) (UniProt Q13555); details: Compound concentration 1000.0 nM
[37] = molecular target: Phosphatidylinositol 5-phosphate 4-kinase type-2 beta (Homo sapiens) (UniProt P78356); details: Compound concentration 1000.0 nM

Chain of Ephrin type-A receptor 3 (Homo sapiens) (P29320 whole entry): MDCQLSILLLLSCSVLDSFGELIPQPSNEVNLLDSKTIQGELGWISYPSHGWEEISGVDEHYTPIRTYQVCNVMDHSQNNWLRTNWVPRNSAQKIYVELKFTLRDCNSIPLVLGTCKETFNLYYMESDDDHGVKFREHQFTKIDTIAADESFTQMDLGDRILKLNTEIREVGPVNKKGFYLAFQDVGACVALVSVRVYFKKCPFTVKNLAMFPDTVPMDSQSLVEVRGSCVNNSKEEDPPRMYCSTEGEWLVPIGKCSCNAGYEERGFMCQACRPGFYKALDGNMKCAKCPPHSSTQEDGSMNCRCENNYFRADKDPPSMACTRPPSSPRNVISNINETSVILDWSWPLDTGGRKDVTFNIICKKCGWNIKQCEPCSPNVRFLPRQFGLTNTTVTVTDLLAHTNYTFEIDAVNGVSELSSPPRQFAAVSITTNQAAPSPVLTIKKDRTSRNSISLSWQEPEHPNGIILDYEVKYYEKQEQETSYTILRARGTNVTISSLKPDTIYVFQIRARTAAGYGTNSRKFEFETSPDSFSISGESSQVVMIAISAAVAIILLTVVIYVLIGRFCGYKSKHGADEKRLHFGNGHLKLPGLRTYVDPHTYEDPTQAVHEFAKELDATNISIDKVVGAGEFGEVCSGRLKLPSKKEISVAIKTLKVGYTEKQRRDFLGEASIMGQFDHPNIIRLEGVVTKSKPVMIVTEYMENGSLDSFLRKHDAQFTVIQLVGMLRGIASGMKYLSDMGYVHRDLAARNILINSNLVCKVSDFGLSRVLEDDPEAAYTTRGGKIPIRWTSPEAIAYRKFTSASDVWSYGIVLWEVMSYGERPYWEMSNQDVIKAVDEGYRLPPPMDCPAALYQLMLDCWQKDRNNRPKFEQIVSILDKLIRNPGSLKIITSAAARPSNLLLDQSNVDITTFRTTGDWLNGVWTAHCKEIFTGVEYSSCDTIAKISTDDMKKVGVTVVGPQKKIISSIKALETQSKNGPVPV
Chain of Mitogen-activated protein kinase kinase kinase 6 (Homo sapiens) (O95382 whole entry): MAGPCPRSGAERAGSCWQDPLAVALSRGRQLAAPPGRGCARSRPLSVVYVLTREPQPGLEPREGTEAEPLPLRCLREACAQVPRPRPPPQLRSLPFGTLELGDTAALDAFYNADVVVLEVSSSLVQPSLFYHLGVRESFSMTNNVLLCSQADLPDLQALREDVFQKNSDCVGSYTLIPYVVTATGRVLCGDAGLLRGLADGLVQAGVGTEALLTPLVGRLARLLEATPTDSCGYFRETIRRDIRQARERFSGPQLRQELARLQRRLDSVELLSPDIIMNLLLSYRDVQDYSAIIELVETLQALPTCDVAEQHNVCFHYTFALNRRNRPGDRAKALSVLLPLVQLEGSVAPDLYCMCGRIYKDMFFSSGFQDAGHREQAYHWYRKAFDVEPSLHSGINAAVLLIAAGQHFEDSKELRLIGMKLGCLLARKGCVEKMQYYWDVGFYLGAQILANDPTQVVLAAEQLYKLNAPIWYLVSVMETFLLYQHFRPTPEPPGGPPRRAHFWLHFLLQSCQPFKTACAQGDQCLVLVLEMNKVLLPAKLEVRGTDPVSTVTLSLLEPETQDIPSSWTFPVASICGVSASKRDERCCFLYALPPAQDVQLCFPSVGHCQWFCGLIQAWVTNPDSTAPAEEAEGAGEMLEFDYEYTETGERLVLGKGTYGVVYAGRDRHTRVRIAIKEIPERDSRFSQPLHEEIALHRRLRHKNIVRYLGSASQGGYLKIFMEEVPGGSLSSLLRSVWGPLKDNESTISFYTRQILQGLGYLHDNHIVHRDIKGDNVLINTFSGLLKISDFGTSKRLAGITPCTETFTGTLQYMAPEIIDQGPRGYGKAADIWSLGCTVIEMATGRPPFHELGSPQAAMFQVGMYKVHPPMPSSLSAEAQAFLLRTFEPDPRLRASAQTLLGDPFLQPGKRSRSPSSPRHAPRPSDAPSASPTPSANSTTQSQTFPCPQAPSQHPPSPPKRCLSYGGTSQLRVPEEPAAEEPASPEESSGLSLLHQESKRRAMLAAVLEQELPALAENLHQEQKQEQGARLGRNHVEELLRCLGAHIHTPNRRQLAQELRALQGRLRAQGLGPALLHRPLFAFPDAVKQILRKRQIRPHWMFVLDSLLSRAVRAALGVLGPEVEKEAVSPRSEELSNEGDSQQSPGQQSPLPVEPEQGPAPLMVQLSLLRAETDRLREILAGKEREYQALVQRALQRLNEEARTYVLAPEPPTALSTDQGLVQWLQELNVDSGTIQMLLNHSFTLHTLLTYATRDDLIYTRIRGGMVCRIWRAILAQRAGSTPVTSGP
Chain of Calcium/calmodulin-dependent protein kinase type 1D (Homo sapiens) (Q8IU85 whole entry, looked up): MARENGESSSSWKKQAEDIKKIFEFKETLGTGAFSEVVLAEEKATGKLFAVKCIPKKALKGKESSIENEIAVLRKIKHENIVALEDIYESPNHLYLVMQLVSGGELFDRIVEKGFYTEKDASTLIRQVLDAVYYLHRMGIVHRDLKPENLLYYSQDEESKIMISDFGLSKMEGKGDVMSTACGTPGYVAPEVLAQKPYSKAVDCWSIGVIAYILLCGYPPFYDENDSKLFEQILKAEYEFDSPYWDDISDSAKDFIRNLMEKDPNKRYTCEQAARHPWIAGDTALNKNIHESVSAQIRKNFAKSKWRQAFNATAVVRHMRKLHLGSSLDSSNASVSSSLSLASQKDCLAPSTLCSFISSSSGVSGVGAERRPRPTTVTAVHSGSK
Chain of Death-associated protein kinase 1 (Homo sapiens) (P53355 whole entry, looked up): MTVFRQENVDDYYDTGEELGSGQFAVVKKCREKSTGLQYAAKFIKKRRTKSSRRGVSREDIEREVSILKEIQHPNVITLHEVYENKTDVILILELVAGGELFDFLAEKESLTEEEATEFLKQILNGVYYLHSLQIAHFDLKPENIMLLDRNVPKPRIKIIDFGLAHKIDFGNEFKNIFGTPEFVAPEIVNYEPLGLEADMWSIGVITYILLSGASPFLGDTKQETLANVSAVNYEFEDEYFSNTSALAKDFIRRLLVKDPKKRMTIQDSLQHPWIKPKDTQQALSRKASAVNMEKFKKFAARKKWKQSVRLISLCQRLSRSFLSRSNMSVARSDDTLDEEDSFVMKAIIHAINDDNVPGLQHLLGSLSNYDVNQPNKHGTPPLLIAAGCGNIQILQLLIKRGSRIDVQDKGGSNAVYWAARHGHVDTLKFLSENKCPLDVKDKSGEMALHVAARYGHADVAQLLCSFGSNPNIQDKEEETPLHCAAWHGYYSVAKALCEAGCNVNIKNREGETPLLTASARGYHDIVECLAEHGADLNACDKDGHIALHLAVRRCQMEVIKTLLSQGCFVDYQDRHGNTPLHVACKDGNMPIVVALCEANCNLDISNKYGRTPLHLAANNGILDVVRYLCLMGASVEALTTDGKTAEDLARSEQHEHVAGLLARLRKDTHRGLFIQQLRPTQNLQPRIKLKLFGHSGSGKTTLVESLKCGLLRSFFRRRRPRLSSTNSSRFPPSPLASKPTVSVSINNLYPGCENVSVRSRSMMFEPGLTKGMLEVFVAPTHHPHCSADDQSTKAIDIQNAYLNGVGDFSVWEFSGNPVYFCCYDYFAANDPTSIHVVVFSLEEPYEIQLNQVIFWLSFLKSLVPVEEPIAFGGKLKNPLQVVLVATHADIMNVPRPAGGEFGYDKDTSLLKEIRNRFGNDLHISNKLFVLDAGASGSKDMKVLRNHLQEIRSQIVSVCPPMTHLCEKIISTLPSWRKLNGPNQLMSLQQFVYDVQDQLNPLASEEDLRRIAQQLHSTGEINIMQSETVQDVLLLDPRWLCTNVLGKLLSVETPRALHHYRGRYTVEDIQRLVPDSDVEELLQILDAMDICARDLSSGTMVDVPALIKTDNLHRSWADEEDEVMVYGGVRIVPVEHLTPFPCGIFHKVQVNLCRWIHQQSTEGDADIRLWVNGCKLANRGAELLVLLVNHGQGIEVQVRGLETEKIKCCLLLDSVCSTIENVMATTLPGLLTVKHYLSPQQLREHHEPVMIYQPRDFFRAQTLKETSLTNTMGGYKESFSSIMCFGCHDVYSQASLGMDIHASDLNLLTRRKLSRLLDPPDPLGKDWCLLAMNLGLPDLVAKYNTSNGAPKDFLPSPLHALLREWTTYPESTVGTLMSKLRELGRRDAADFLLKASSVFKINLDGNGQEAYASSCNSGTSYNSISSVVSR
Chain of Mitogen-activated protein kinase kinase kinase 3 (Homo sapiens) (Q99759 whole entry): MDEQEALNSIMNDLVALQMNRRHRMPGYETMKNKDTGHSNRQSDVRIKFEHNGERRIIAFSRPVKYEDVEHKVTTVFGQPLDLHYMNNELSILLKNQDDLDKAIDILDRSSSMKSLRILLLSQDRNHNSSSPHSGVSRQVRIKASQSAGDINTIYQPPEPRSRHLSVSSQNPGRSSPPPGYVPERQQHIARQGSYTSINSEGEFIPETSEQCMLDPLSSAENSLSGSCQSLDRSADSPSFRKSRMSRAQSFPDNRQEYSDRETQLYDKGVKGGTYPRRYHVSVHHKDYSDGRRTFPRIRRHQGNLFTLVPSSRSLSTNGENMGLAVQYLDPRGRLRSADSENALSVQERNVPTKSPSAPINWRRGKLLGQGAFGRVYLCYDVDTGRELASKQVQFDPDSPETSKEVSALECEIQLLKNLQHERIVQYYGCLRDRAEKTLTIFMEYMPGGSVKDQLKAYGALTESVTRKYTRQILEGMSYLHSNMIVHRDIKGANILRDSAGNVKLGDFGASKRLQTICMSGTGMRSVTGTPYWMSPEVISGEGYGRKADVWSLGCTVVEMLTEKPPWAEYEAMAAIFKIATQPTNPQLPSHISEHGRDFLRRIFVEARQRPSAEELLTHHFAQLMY
Chain of Serine/threonine-protein kinase pim-1 (Homo sapiens) (P11309 whole entry, looked up, canonical isoform): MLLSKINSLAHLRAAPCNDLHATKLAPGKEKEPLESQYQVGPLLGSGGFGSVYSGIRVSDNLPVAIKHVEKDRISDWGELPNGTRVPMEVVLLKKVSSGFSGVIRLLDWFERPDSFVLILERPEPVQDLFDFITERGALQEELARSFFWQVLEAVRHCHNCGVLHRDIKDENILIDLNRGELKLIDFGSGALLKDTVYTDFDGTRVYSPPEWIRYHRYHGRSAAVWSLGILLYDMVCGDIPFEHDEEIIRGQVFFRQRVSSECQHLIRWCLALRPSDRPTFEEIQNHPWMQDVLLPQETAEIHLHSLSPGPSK

Cn1cncc1[C@@](O)(COc1ccc(C#N)cc1-c1ccc(OC(F)(F)F)cc1)c1ccc(C#N)cc1 [A-108]
inactive: residual activity [1] 100% | residual activity [2] 100% | residual activity [3] 69% | residual activity [4] 95% | residual activity [5] 93% | residual activity [6] 80% | residual activity [7] 100% | residual activity [8] 81% | residual activity [9] 88% | inhibition [10] 6.63% | residual activity [11] 100% | residual activity [12] 100% | residual activity [13] 100% | residual activity [14] 100% | residual activity [15] 100% | residual activity [16] 93% | residual activity [17] 96% | residual activity [18] 100% | inhibition [19] 6.36% | residual activity [20] 100% | residual activity [21] 89% | residual activity [22] 100% | residual activity [23] 92% | residual activity [24] 100% | residual activity [25] 100% | residual activity [26] 64% | residual activity [27] 100% | residual activity [28] 100% | inhibition [29] -9.7% | residual activity [30] 100% | residual activity [31] 56% | residual activity [32] 100% | residual activity [33] 91% | residual activity [34] 100% | residual activity [35] 100% | residual activity [36] 98% | residual activity [37] 100%

Cn1cncc1[C@](O)(COc1ccc(C#N)cc1-c1ccc(OC(F)(F)F)cc1)c1ccc(C#N)cc1 [ABT-100]
inactive: residual activity [1] 59% | residual activity [2] 77% | residual activity [3] 84% | residual activity [4] 100% | residual activity [5] 100% | residual activity [6] 97% | residual activity [7] 100% | residual activity [8] 100% | residual activity [9] 92% | inhibition [10] 9.99% | residual activity [11] 82% | residual activity [12] 87% | residual activity [13] 58% | residual activity [14] 90% | residual activity [15] 72% | residual activity [16] 88% | residual activity [17] 90% | residual activity [18] 98% | inhibition [19] 2.72% | residual activity [20] 100% | residual activity [21] 100% | residual activity [22] 100% | residual activity [23] 88% | residual activity [24] 100% | residual activity [25] 89% | residual activity [26] 84% | residual activity [27] 99% | residual activity [28] 84% | inhibition [29] 6.8% | residual activity [30] 76% | residual activity [31] 53% | residual activity [32] 96% | residual activity [33] 90% | residual activity [34] 93% | residual activity [35] 100% | residual activity [36] 94% | residual activity [37] 100%
